One assay relates to MHC-I expression by COLO 205 cells. Description: cells. It counts as cell-based, human.
Details: not given
Here is the method: A panel of synthetic cannabinoids (Cayman Chemical, #9002891) was tested for MHC class I-inducing capability in COLO 205 cells as described above. COLO 205 cells were treated with the compounds at a concentration of 35 μM and evaluated for cell surface MHC class I expression after 48 hours. Cells were harvested, stained with MHC-I mAb W6/32 (Thermo Fisher). MHC-I expression was determined by flow cytometry.
Regarding “1-naphthalenyl[1-(4-penten-1-yl)-1H-indol-3-yl]-methanone [Example 73]”, the “Induction Fold” value came out at 2.68 Fold.

In the case of “1-naphthalenyl[5-(1-naphthalenyl)-1-pentyl-1H-pyrrol-3-yl]-methanone [Example 214]”, the “Induction Fold” value came out at 1.80 Fold.

The same assay, now with this note: Homo sapiens, COLO 205, 48 h, MHC-I expression, COLO 205 cells, compounds at 35 μM, 48 hours, flow cytometry (W6/32); read-out: Induction Fold.
For `COc1cccc2c(C(=O)N3CCN(C)C(C)C3)cn(CC3CCCCC3)c12` (racemic) [Example 277, [1-(cyclohexylmethyl)-7-methoxy-1H-indol-3-yl](3,4-dimethyl-1-piperazinyl)-methanone], the fold induction at 35 µM was 1.5.

Turning to `CCCCCC(C)(C)c1ccc([C@H]2CCC[C@@H](O)C2)c(O)c1` (relative stereo) [Example 209, cis-5-(1,1-dimethylhexyl)-2-(3-hydroxycyclohexyl)-phenol], the fold induction at 35 µM is 1.84. Same read-out and setting: to `CCCCCCCC(C)(C)c1ccc([C@@H]2CCC[C@H](O)C2)c(O)c1` (relative stereo) [Example 241, rel-5-(1,1-dimethyloctyl)-2-[(1R,3S)-3-hydroxycyclohexyl]-phenol] belongs 1.68; to `CCCCCCC(C)(C)c1ccc([C@@H]2CCC[C@H](O)C2)c(O)c1` (relative stereo) [Example 353, rel-5-(1,1-dimethylheptyl)-2-[(1R,3S)-3-hydroxycyclohexyl]-phenol], 1.06.

Consider `CCCCCCCCC(C)(C)c1ccc([C@H]2CCC[C@@H](O)C2)c(O)c1` (relative stereo) [Example 374, cis-5-(1,1-dimethylnonyl)-2-(3-hydroxycyclohexyl)-phenol], for which the fold induction at 35 µM was 0.49. For the compound `CCCCCCC(C)(C)c1ccc([C@@H]2C[C@@H](O)CC[C@H]2CCCO)c(O)c1` (relative stereo) [Example 375, rel-2-((1R,2R,5S)-5-hydroxy-2-(3-hydroxypropyl)cyclohexyl)-5-(2-methyloctan-2-yl)phenol], the fold induction at 35 µM was found to be 0.33. Same read-out and setting: for `CCCCCn1nc(C(=O)N[C@@H](CCCC)C(N)=O)c2ccccc21` (single isomer, unassigned) [Example 11] the value was 4.56; for `CCCCCn1nc(C(=O)N[C@H](C(N)=O)[C@@H](C)CC)c2ccccc21` (single isomer, unassigned) [Example 26], 3.49; for `CCC(C(N)=O)N(C)C(=O)c1nn(Cc2ccc(F)cc2)c2ccccc12` (single isomer, unassigned) [Example 135, N-(1-amino-1-oxobutan-2-yl)-1-(4-fluorobenzyl)-N-methyl-1H-indazole-3-carboxamide], 2.23. With `CCCCCn1nc(C(=O)NC(C)(C(N)=O)C(C)C)c2ccccc21` (single isomer, unassigned) [Example 151, N-(1-amino-2,3-dimethyl-1-oxobutan-2-yl)-1-pentyl-1H-indazole-3-carboxamide], the fold induction at 35 µM came out at 2.13. With `CCCC(NC(=O)c1nn(Cc2ccc(F)cc2)c2ccccc12)C(N)=O` (single isomer, unassigned) [Example 169, N-(1-amino-1-oxopentan-2-yl)-1-(4-fluorobenzyl)-1H-indazole-3-carboxamide], the fold induction at 35 µM came to 2.01. Still for that read-out and setting: to `CCC(C)(NC(=O)c1nn(Cc2ccc(F)cc2)c2ccccc12)C(N)=O` (single isomer, unassigned) [Example 287, N-(1-amino-2-methyl-1-oxobutan-2-yl)-1-(4-fluorobenzyl)-1H-indazole-3-carboxamide] belongs 1.45; to `CC[C@H](C)[C@H](NC(=O)c1nn(CCCCCF)c2ccccc12)C(N)=O` (single isomer, unassigned) [Example 298], 1.42; to `CC(C)(NC(=O)c1c2ccccc2nn1CCCCC#N)c1ccccc1` (single isomer, unassigned) [Example 299, 2-(4-cyanobutyl)-N-(2-phenylpropan-2-yl)-2H-indazole-3-carboxamide], 1.42.

As for `O=C(NC1C2CC3CC(C2)CC1C3)c1nn(CC2CCOCC2)c2ccccc12` (single isomer, unassigned) [Example 352, N-(adamantan-2-yl)-1-((tetrahydro-2H-pyran-4-yl)methyl)-1H-indazole-3-carboxamide], the fold induction at 35 µM came to 1.07. On the same count and under the same terms, for `O=C(NC12CC3CC(CC(C3)C1)C2)c1nn(CC2CCOCC2)c2ccccc12` (single isomer, unassigned) [Example 361, 1-[(tetrahydro-2H-pyran-4-yl)methyl]-N-tricyclo[3.3.1.1^3,7]dec-1-yl-1H-indazole-3-carboxamide] the value was 0.95. Consider `CN1CCCCC(Cn2cc(C(=O)c3cccc4ccccc34)c3ccccc32)C1` (stereo not drawn) [Example 6, (1-((1-methylazepan-3-yl)methyl)-1H-indol-3-yl)(naphthalen-1-yl)methanone], for which the fold induction at 35 µM was 5.6. The same measure, in the same setting: to `CN1CCCCC1Cn1cc(C(=O)c2cc([N+](=O)[O-])ccc2I)c2ccccc21` (stereo not drawn) [Example 7, (2-iodo-5-nitrophenyl)-(1-(1-methylpiperidin-2-ylmethyl)-1H-indol-3-yl)methanone] belongs 5.59; to `O=C(Oc1ccnc2ccccc12)c1cn(CC2CCCCC2)c2ccccc12` [Example 9, quinolin-4-yl 1-(cyclohexylmethyl)-1H-indole-3-carboxylate], 5.41. On the same count and under the same terms, to `CCCCCn1cc(C(=O)Oc2ccnc3ccccc23)c2ccccc21` [Example 10, quinolin-4-yl 1-pentyl-1H-indole-3-carboxylate] belongs 5.02; to `O=C(Oc1ccc2cccnc2c1)c1cn(CCCCCF)c2ccccc12` [Example 12, quinolin-7-yl 1-(5-fluoropentyl)-1H-indole-3-carboxylate], 4.34. On the same count and under the same terms, to `O=C(c1ccc2ccccc2c1)c1cn(CCN2CCOCC2)c2ccccc12` [Example 13, [1-[2-(4-morpholinyl)ethyl]-1H-indol-3-yl]-2-naphthalenyl-methanone] belongs 4.3. In the case of `COC(=O)[C@@H](NC(=O)c1nn(CC2CCCCC2)c2ccccc12)C(C)C` [Example 14, N-[[1-(cyclohexylmethyl)-1H-indazol-3-yl]carbonyl]-L-valine, methyl ester], the fold induction at 35 µM amounted to 4.2. On the same count and under the same terms, to `COC(=O)[C@@H](NC(=O)c1nn(Cc2ccc(F)cc2)c2ccccc12)C(C)C` [Example 15, N-[[1-[(4-fluorophenyl)methyl]-1H-indazol-3-yl]carbonyl]-L-valine, methyl ester] belongs 4.2; to `O=C(Oc1cccc2ccncc12)c1cn(CCCCCF)c2ccccc12` [Example 16, isoquinolin-8-yl 1-(5-fluoropentyl)-1H-indole-3-carboxylate], 4.19; to `CCCCCn1cc(C(=O)Oc2cccc3ccncc23)c2ccccc21` [Example 17, isoquinolin-8-yl 1-pentyl-1H-indole-3-carboxylate], 4.11.

Staying with this assay, now noted: MHC-I expression, COLO 205 cells, compounds at 35 μM, 48 hours, flow cytometry (W6/32).
As for `CCCCCCCC(C)(C)c1ccc([C@H]2CCC[C@H](O)C2)c(O)c1` (relative stereo) [Example 301, rel-2-[(1S,3S)-3-hydroxycyclohexyl)]-5-(2-methylnonan-2-yl)phenol], the “Induction Fold” value worked out at 1.41 Fold. On to `CCOC(=O)[C@@H](NC(=O)c1nn(Cc2ccc(F)cc2)c2ccccc12)C(C)C` [Example 8, ethyl (1-(4-fluorobenzyl)-1H-indazole-3-carbonyl)-1-valinate], for which the “Induction Fold” value came out at 5.50 Fold.

These data come from patent US20210038559A1, “CANNABINOIDS AND DERIVATIVES FOR PROMOTING IMMUNOGENICITY OF TUMOR AND INFECTED CELLS” (priority 2018, published 2021).
